# Source: ChEMBL document CHEMBL4828774, “Novel PRMT5 Inhibitors for Treating Cancer” (ACS Med Chem Lett, 2021)
# Assay: Cytotoxicity against human HCT116-MTAP null cells assessed as reduction in cell viability incubated for 6 days by CellTiter-Glo luminescent assay
# Type: functional, cell-based
# Details: 144 h
row,SMILES,IC50 [nM]
1,Cc1cc2cc(C(=O)N(Cc3ccc(C(F)(F)F)cn3)[C@@H]3CCCc4nccnc43)ccc2nc1N,12
2,Cc1cc2cc(C(=O)N(Cc3ccc(C(F)(F)F)cn3)[C@@H]3CCOc4ccc(F)nc43)ccc2nc1N,13
3,Cc1cc2cc(C(=O)N(Cc3ccc(C(F)(F)F)cn3)[C@H](C)c3cccc(F)n3)ccc2nc1N,13
4,Cc1cc2cc(C(=O)N(Cc3ccc(Br)cn3)[C@H](C)c3ncccn3)ccc2nc1N,15
5,Cc1cc2cc(C(=O)N(Cc3ccc(C(F)(F)F)cn3)[C@@H]3CCCc4cn[nH]c43)ccc2nc1N,10
6,C[C@H](c1ncccn1)N(Cc1ccc(C(F)(F)F)nn1)C(=O)c1cnc2nc(N)c(I)cc2c1,15
